Measurements published in patent publication US10450318B2, “CXCR4 receptor antagonists” (BRISTOL-MYERS SQUIBB COMPANY, priority 2015, dated 2019).

molecular target: T1, CXCR4 receptors (Homo sapiens, UniProt P61073); assay: CXCR4-CEM calcium flux assay, antagonist mode (inhibition of SDF-1α-induced calcium flux); format: cell-based; details: inhibition of calcium flux induced by 4 nM SDF-1α in CCRF-CEM cells
T1 construct: expressing endogenous CXCR4 receptors; endogenous in cells; host or cells: CCRF-CEM (human T lymphoblast cells)
Experimental: Exemplary compounds of the invention were tested for their ability to induce or inhibit calcium flux in CCRF-CEM cells. […] CXCR4-CEM Calcium Flux Assays. […] The cells were then equilibrated to room temperature for 30 minutes before assay. […] The serially diluted compounds were diluted to working concentrations with the same assay buffer to 0.5% DMSO. […] Activity of the compounds to induce calcium flux was monitored by FDSS in the “agonist mode” for 90 sec. For “antagonist mode” assessment, the cells are subsequently incubated for 25 min at room temperature. SDF-1α (R&D System Cat#350-NS/CF) was then added at a final concentration of 4 nM to stimulate the cells. Inhibition of SDF-1α-induced calcium flux was monitored by FDSS6000 for 90 sec. […] After correcting for background, EC50 values were determined. […] Inhibition data for the test compound over a range of concentrations was plotted as percentage inhibition of the test compound as compared to an internal control compound.

T1 sequence (P61073 whole entry): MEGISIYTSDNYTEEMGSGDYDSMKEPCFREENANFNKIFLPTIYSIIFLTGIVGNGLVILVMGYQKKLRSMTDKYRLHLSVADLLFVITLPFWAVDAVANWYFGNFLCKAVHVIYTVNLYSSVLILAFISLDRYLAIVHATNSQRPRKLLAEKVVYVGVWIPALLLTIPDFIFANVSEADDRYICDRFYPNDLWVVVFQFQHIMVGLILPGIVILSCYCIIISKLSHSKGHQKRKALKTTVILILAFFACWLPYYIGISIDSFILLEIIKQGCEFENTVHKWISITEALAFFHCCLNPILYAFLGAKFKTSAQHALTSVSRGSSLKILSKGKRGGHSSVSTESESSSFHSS

Point of comparison: `CCOC(=O)CN1CCN(c2nccc3nc(CN(C)[C@H]4CCCc5cccnc54)cn23)CC1` [Example 48, ethyl 2-{4-[2-({methyl[(S)-5,6,7,8-tetrahydroquinolin-8-yl]amino}methyl)imidazo[1,2-c]pyrimidin-5-yl]piperazin-1-yl}acetate], IC50 300 nM. Against it:
- CN(Cc1cn2c(N3CCN(Cc4ccccc4)CC3)nccc2n1)[C@H]1CCCc2cccnc21 [Example 37, (S)-N-{[5-(4-benzylpiperazin-1-yl)imidazo[1,2-c]pyrimidin-2-yl]methyl}-N-methyl-5,6,7,8-tetrahydroquinolin-8-amine] — 13-fold lower, 23 nM
- CN1CCC(N2CCN(c3nccc4nc(CN(C)[C@H]5CCCc6cccnc65)cn34)CC2)CC1 [Example 38, (S)-N-methyl-N-({5-[4-(1-methylpiperidin-4-yl)piperazin-1-yl]imidazo[1,2-c]pyrimidin-2-yl}methyl)-5,6,7,8-tetrahydroquinolin-8-amine] — within 1.5-fold, 420 nM
- CN(Cc1cn2c(N3CCN(CC(c4ccccc4)c4ccccc4)CC3)nccc2n1)[C@H]1CCCc2cccnc21 [Example 39, (S)-N-({5-[4-(2,2-diphenylethyl)piperazin-1-yl]imidazo[1,2-c]pyrimidin-2-yl}methyl)-N-methyl-5,6,7,8-tetrahydroquinolin-8-amine] — 4.8-fold lower, 63 nM
- CC(C)S(=O)(=O)N1CCN(c2nccc3nc(CN(C)[C@H]4CCCc5cccnc54)cn23)CC1 [Example 40, (S)-N-methyl-N-({5-[4-(propane-2-sulfonyl)piperazin-1-yl]imidazo[1,2-c]pyrimidin-2-yl}methyl)-5,6,7,8-tetrahydroquinolin-8-amine] — 48-fold higher, 14400 nM
- CN(Cc1cn2c(N3CCN(S(=O)(=O)c4cccnc4)CC3)nccc2n1)[C@H]1CCCc2cccnc21 [Example 41, (S)-N-methyl-N-({5-[4-(pyridine-3-sulfonyl)piperazin-1-yl]imidazo[1,2-c]pyrimidin-2-yl}methyl)-5,6,7,8-tetrahydroquinolin-8-amine] — 25-fold higher, 7500 nM
- CN(Cc1cn2c(N3CCN(S(=O)(=O)c4cccc(Cl)c4)CC3)nccc2n1)[C@H]1CCCc2cccnc21 [Example 42, (S)-N-({5-[4-(3-chlorobenzenesulfonyl)piperazin-1-yl]imidazo[1,2-c]pyrimidin-2-yl}methyl)-N-methyl-5,6,7,8-tetrahydroquinolin-8-amine] — 76-fold higher, 22700 nM
- CN(Cc1cn2c(N3CCN(C(=O)Nc4ccccc4)CC3)nccc2n1)[C@H]1CCCc2cccnc21 [Example 43, 4-[2-({methyl[(S)-5,6,7,8-tetrahydroquinolin-8-yl]amino}methyl)imidazo[1,2-c]pyrimidin-5-yl]-N-phenylpiperazine-1-carboxamide] — 2.3-fold lower, 130 nM
- CC(C)NC(=O)N1CCN(c2nccc3nc(CN(C)[C@H]4CCCc5cccnc54)cn23)CC1 [Example 44, 4-[2-({methyl[(S)-5,6,7,8-tetrahydroquinolin-8-yl]amino}methyl)imidazo[1,2-c]pyrimidin-5-yl]-N-(propan-2-yl)piperazine-1-carboxamide] — 31-fold higher, 9360 nM
- CN(Cc1cn2c(N3CCN(C(=O)Nc4cccnc4)CC3)nccc2n1)[C@H]1CCCc2cccnc21 [Example 45, 4-[2-({methyl[(S)-5,6,7,8-tetrahydroquinolin-8-yl]amino}methyl)imidazo[1,2-c]pyrimidin-5-yl]-N-(pyridin-3-yl)piperazine-1-carboxamide] — 4.5-fold lower, 66 nM
- CC(CN1CCN(c2nccc3nc(CN(C)[C@H]4CCCc5cccnc54)cn23)CC1)c1ccccc1 (stereo partly drawn) [Example 46, (S)-N-methyl-N-({5-[4-(2-phenylpropyl)piperazin-1-yl]imidazo[1,2-c]pyrimidin-2-yl}methyl)-5,6,7,8-tetrahydroquinolin-8-amine] — 41-fold lower, 7.3 nM
- CN(Cc1cn2c(N3CCN(Cc4ccc(-c5ccccc5)cc4)CC3)nccc2n1)[C@H]1CCCc2cccnc21 [Example 47, (S)-N-methyl-N-[(5-{4-[(4-phenylphenyl)methyl]piperazin-1-yl}imidazo[1,2-c]pyrimidin-2-yl)methyl]-5,6,7,8-tetrahydroquinolin-8-amine] — 31-fold lower, 9.7 nM
- CN(Cc1cn2c(N3CCN(Cc4ncc[nH]4)CC3)nccc2n1)[C@H]1CCCc2cccnc21 [Example 49, (S)-N-({5-[4-(1H-imidazol-2-ylmethyl)piperazin-1-yl]imidazo[1,2-c]pyrimidin-2-yl}methyl)-N-methyl-5,6,7,8-tetrahydroquinolin-8-amine] — 110-fold lower, 2.8 nM
- CN(Cc1cn2c(N3CCN(CC(=O)O)CC3)nccc2n1)[C@H]1CCCc2cccnc21 [Example 50, 2-{4-[2-({methyl[(S)-5,6,7,8-tetrahydroquinolin-8-yl]amino}methyl)imidazo[1,2-c]pyrimidin-5-yl]piperazin-1-yl}acetic acid] — 3.3-fold lower, 92 nM
- CN(Cc1cn2c(N3CCN(Cc4nccn4C)CC3)nccc2n1)[C@H]1CCCc2cccnc21 [Example 51, (S)-N-methyl-N-[(5-{4-[(1-methyl-1H-imidazol-2-yl)methyl]piperazin-1-yl}imidazo[1,2-c]pyrimidin-2-yl)methyl]-5,6,7,8-tetrahydroquinolin-8-amine] — 50-fold lower, 6 nM
- Cc1cccc(CN2CCN(c3nccc4nc(CN(C)[C@H]5CCCc6cccnc65)cn34)CC2)c1 [Example 52, (S)-N-methyl-N-[(5-{4-[(3-methylphenyl)methyl]piperazin-1-yl}imidazo[1,2-c]pyrimidin-2-yl)methyl]-5,6,7,8-tetrahydroquinolin-8-amine] — 100-fold lower, 2.9 nM
- Cc1ccc(CN2CCN(c3nccc4nc(CN(C)[C@H]5CCCc6cccnc65)cn34)CC2)cc1 [Example 53, (S)-N-methyl-N-[(5-{4-[(4-methylphenyl)methyl]piperazin-1-yl}imidazo[1,2-c]pyrimidin-2-yl)methyl]-5,6,7,8-tetrahydroquinolin-8-amine] — 18-fold lower, 17 nM
- CN(Cc1cn2c(N3CCN(Cc4ccco4)CC3)nccc2n1)[C@H]1CCCc2cccnc21 [Example 54, (S)-N-({5-[4-(furan-2-ylmethyl)piperazin-1-yl]imidazo[1,2-c]pyrimidin-2-yl}methyl)-N-methyl-5,6,7,8-tetrahydroquinolin-8-amine] — 54-fold lower, 5.6 nM
- CN(Cc1cn2c(N3CCN(Cc4ccccn4)CC3)nccc2n1)[C@H]1CCCc2cccnc21 [Example 55, (S)-N-methyl-N-({5-[4-(pyridin-2-ylmethyl)piperazin-1-yl]imidazo[1,2-c]pyrimidin-2-yl}methyl)-5,6,7,8-tetrahydroquinolin-8-amine] — 33-fold lower, 9 nM
- CN(Cc1cn2c(N3CCN(Cc4cccn4C)CC3)nccc2n1)[C@H]1CCCc2cccnc21 [Example 56, (S)-N-methyl-N-[(5-{4-[(1-methyl-1H-pyrrol-2-yl)methyl]piperazin-1-yl}imidazo[1,2-c]pyrimidin-2-yl)methyl]-5,6,7,8-tetrahydroquinolin-8-amine] — 65-fold lower, 4.6 nM
- CN(Cc1cn2c(N3CCN(Cc4cccc(Oc5ccccc5)c4)CC3)nccc2n1)[C@H]1CCCc2cccnc21 [Example 57, (8S)-N-methyl-N-[(5-{4-[(3-phenoxyphenyl)methyl]piperazin-1-yl}imidazo[1,2-c]pyrimidin-2-yl)methyl]-5,6,7,8-tetrahydroquinolin-8-amine] — 11-fold lower, 28 nM
- CN(Cc1cn2c(N3CCN(CC4CCCO4)CC3)nccc2n1)[C@H]1CCCc2cccnc21 (stereo partly drawn) [Example 58, (S)-N-methyl-N-({5-[4-(oxolan-2-ylmethyl)piperazin-1-yl]imidazo[1,2-c]pyrimidin-2-yl}methyl)-5,6,7,8-tetrahydroquinolin-8-amine] — 5-fold lower, 60 nM
